Experimental data: patent US20250236596A1, “HYDROXYLAMINE-BASED EGFR INHIBITORS FOR TREATMENT OF CANCER WITH BRAIN METASTASES” (University of Georgia Research Foundation, Inc., priority 2022, published 2025)
“Also recorded” adds a separate entry of the source.

Experiments:
[1] = tested on: Chinese hamster ovary (CHO-K1) cells; assay: In vitro micronucleus test; format: cell-based; settings: for concentration to which negative micronucleus result is valid: cytotoxicity above
Procedure: Compound 15 was assessed for genotoxicity by Eurofins Panlabs. using the in vitro micronucleus test in Chinese hamster ovary (CHO-K1) cells as previously described.^22 Compound 15 was incubated in a 96-well plate format at varying concentrations (8, 16, 31, 62, 125, 250, 500 and 1000 μM) for 4 h at 37° C. with metabolic activation by rat liver S9 and 24 h at 37° C. without metabolic activation by rat liver S9. High content analysis and fluorescence imaging were used to detect micronuclei and compared against positive controls (cyclophosphamide (ran at 7.2 μM) and mitomycin C (ran at 0.3 μM)). Significances of the positive counts between the treatment and control were determined by one-tailed t-test with two sample equal variance.

[2] = Pharmacokinetics in SD rats (IV and PO); format: in vivo; settings: SD rats at the tested doses
Procedure: Animal experiments were performed at Pharmaron Inc. and animal use was approved by Pharmaron's Institutional Animal Care and Use Committee (IACUC) in Pharmaron (Pharmaron IACUC, Protocol #PK-M-07182022, #PK-R-06012022 and #ON-CELL-XEN-06012022) following the guidance of AAALAC. Six- to eight-week-old male SD rats (approximately 200-300 g) obtained from Si Bei Fu Laboratory Animal Technology Co., six- to eight-week-old male CD1 mice (approximately 20-30 g) obtained from Si Bei Fu Laboratory Animal Technology Co., and six- to eight-week-old female BALB/c nude mice (approximately 20-30 g) obtained from Si Bei Fu Laboratory Animal Technology Co., were used in the pharmacokinetic studies. Six- to eight-week-old female BALB/c nude mice (approximately 18-22 g) obtained from Beijing Anikeeper Biotech Co., Ltd were used in the intracranial PDX study. […]
Approximately 0.03 mL of blood was collected from the dorsal metatarsal vein (in the case of CD1 mice), 0.03 mL of blood from the orbit vein (in the case of BALB/c nude mice) or 0.2 mL of blood from the jugular vein (in the case of SD rats) at each time point. […] Concentrations of test articles in the plasma samples were determined using LC-MS/MS and WinNonlin 8.3 (Phoenix™) was used for pharmacokinetic calculations. […]

[3] = target: CYP2C19 (Homo sapiens, UniProt P33261); assay: Human CYP450 inhibition in human liver microsomes, CYP2C19; format: in vitro ADME; settings: pooled human liver microsomes, probe (S)-mephenytoin (50 μM), 4′-hydroxylation
Procedure: (§1) Assessment of compound 15 was carried out at Pharmaron Inc. for its potential to inhibit cytochrome P450 (CYP) isoforms using human liver microsomes. The activities tested were CYP1A2-mediated phenacetin O-demethylation, CYP2C19-mediated (S)-mephenytoin 4′-hydroxylation, CYP2C9-mediated diclofenac 4′-hydroxylation, CYP2D6-mediated dextromethorphan O-demethylation and CYP3A4-mediated midazolam 1′-hydroxylation. Concentrations of substrates were phenacetin (40 μM), mephenytoin (50 μM), diclofenac (6 μM), dextromethorphan (2 μM) and midazolam (1 μM). Probe substrates phenacetin, mephenytoin and dextromethorphan were incubated at 37° for 20 min. Probe substrates diclofenac and midazolam were incubated at 37° for 5 min. […] The reactions were initiated by adding NADPH (1 mM final concentration) after a 5 min-preincubation and the assay was ran in duplicate (n=2). Samples were analyzed by UPLC-MS/MS.

[4] = tested on: Ba/F3 EGFR-del E746_A750/C797S cells; assay: CellTiter-Glo viability assay, Ba/F3 EGFR-del E746_A750/C797S; format: cell-based; settings: Mus musculus, BaF3, osimertinib-resistant, 72 h, read-out: antiproliferative IC50
Procedure: The A431, HCC827, SK-BR-3, ZR-75-30, AU565 and Caco-2 cell lines were obtained from ATCC. The NCI-H1975 cell line was obtained from SIBS. The NCI-H3255 cell line was obtained from CoBioer. Engineered Ba/F3 cell lines were obtained from Crown Bioscience. MCKII-MDR1 cells were obtained from the Netherlands Cancer Institute. HEK293 cells were obtained from Invitrogen. A431 cells were cultured in DMEM (Life Technologies) with 10% FBS. HCC827, NCI-H1975 and AU565 cells were cultured in RPMI1640 (Invitrogen) with 10% FBS. NCI-H3255 cells were cultured in BEGM (Lonza) with 10% FBS. Ba/F3 EGFR-del E746_A750/C797S and Ba/F3 EGFR-L858R/C797S cells were cultured in RPMI (Invitrogen) with 10% FBS. SK-BR-3 cells were cultured in McCoy's 5a (Invitrogen) with 10% FBS. ZR-75-30 cells were cultured in RPMI1640 (Invitrogen) with 20% FBS. BT474 cells were cultured in DMEM (Gibco) with 10% FBS and 10 μg/mL Insulin. Caco-2 and MCKII-MDR1 culture information is given in the permeability studies section. […]
Viability assays using A431, HCC827, NCI-H1975, NCI-H3255, Ba/F3 EGFR-del E746_A750/C797S, Ba/F3 EGFR-L858R/C797S, AU565, SK-BR-3 and ZR-75-30 cells were performed at Crown BioScience. […] Dose-response curves were generated and used to calculate the IC50 values which were calculated on GraphPad Prism from the non-linear regression equation fitted with a sigmoidal dose response and are presented as the mean±SEM.

[5] = target: CYP2D6 (Homo sapiens, UniProt P10635); assay: CYP2D6 time-dependent inhibition IC50-shift; format: in vitro ADME; settings: human liver microsomes and primary human hepatocytes; 30 min pre-incubation
Procedure: Incubations in human hepatocytes were carried out without pre-incubation or with a 30 min pre-incubation at 37° C., 5% CO2. The experiment was carried out at 37° C., 5% CO2 for 5 min.

[6] = target: CYP3A4 (Homo sapiens, UniProt P08684); assay: Human CYP450 inhibition in human liver microsomes, CYP3A4; format: in vitro ADME; settings: pooled human liver microsomes, probe midazolam (1 μM), 1′-hydroxylation
Procedure: as §1

Sequence of CYP2C19 (P33261 whole entry, canonical isoform): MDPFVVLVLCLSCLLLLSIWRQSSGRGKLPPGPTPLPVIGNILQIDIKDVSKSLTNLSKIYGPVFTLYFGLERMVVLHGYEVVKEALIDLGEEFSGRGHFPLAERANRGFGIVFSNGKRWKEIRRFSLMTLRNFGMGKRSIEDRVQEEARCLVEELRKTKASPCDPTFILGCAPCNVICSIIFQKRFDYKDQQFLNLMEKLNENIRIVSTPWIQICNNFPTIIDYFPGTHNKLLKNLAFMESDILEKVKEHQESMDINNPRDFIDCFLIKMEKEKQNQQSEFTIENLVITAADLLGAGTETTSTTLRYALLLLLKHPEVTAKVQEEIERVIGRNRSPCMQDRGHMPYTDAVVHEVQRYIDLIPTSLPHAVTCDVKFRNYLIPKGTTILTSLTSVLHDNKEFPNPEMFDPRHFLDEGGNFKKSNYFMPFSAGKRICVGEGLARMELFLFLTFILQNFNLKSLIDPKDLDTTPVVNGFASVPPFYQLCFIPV
Sequence of CYP3A4 (P08684 whole entry): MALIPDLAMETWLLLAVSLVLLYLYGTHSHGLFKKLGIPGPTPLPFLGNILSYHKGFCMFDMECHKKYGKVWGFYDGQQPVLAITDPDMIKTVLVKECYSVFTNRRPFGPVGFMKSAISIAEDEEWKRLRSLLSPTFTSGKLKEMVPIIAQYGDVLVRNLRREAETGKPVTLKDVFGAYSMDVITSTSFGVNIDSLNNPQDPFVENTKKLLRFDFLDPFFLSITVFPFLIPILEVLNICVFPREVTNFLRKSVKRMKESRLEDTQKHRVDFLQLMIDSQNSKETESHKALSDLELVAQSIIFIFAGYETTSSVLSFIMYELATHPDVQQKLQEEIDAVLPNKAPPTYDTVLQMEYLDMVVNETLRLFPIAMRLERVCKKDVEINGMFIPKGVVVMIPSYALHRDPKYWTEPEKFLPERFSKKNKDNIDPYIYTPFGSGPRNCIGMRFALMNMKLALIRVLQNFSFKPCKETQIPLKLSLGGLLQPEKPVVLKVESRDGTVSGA
Sequence of CYP2D6 (P10635 whole entry): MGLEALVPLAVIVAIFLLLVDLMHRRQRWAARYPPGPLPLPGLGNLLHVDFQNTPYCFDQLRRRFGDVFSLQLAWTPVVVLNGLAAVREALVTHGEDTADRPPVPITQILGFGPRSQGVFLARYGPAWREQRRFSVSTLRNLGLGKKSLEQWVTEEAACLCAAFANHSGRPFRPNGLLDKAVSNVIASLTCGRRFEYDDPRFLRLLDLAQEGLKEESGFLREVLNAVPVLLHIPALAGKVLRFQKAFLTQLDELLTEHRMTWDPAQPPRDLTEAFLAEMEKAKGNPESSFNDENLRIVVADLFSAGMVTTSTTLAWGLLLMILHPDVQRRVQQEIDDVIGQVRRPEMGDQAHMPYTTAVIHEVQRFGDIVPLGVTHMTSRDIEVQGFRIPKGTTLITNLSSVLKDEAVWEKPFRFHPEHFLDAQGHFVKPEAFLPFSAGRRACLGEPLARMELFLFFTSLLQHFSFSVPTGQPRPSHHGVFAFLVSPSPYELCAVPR

COc1cc2ncnc(Nc3cccc(Cl)c3F)c2cc1OCCON1CCN(C)CC1 [Compound 15, N-(3-chloro-2-fluorophenyl)-7-methoxy-6-(2-((4-methylpiperazin-1-yl)oxy)ethoxy)quinazolin-4-amine]
concentration to which negative micronucleus result is valid ([1]; +rat liver S9): ≤ 31 µM
genotoxicity in in vitro micronucleus test ([1]; CHO-K1, with and without rat liver S9): negative; also recorded: neither mutagenic nor genotoxic potential
concentration to which negative micronucleus result is valid ([1]; −rat liver S9): ≤ 8 µM
adverse events or signs of toxicity [2]: No adverse events or signs of toxicity
IC50 at 20 min [3]: > 30 µM
IC50 [4]: 0.0025 µM
CYP2D6 time-dependent inhibition (TDI) [5]: not to be time dependent
IC50 at 5 min [6]: > 30 µM
